Series [1] concerns PDEIV. The series is described as follows: PDEIV inhibition (IC50). The settings on record: PDEIV inhibitory activity. Format: biochemical.
The nature of series [2]: Solubility in aqueous solution, noted during coupling. Format: physicochemical. The settings on record: methanol used as solvent instead. The procedure: 1: 6 mg Compound C was dissolved in 2 ml methanol in 50 ml centrifuge tube (methanol was used because Compound C is insoluble in aqueous solution).

Each structure is given as a SMILES string.

What is called IC50 is the concentration that inhibits the measured activity by half.

In series [1], `COc1ccc(C2CNC(=O)C2)cc1OC1CCCC1` (stereo not shown) [rolipram, reference compound] came in with a 50% inhibitory concentration (IC50) of 3 µM.

In turn, `CCNc1ncn(Cc2ccc(OC)c(OC3CCCC3)c2)c2nc(C(C)C)nc1-2` [Compound A, 3-(3-cyclopentyloxy-4-methoxybenzyl)-6-ethylamino-8-isopropyl-purine] returned a half-inhibitory concentration (IC50) in series [1] of 0.41 µM.

In the case of `COc1ccc(Cn2cncc3nc(C(C)C)nc2-3)cc1OC1CCCC1` [Compound C, 3-(3-cyclopentyloxy-4-methoxybenzyl)-8-isopropyl-3H-purine], the “solubility in aqueous solution” value in series [2] is “insoluble”. In addition, in series [1], the 50% inhibitory concentration (IC50) was found to be 0.8 µM.

The values above are taken from patent US20020028469A1, “Method of defining genus of chemical compound and method of designing molecules” (priority 1997, published 2002).
